Assay results reported in ChEMBL document CHEMBL1136867, “2009 Edward E Smissman Award. Pharmaceutical "gold" from neurostabilizing agents: topiramate and successor molecules” (J Med Chem, 2009).

Target: Carbonic anhydrase 2 (Homo sapiens, UniProt P00918)
Test: Inhibition of human carbonic anhydrase 2

NS(=O)(=O)NCc1csc2ccccc12 was tested, and the IC50 was 110 µM.
